The source of these data is article PMC7026418, “The kinase polypharmacology landscape of clinical PARP inhibitors” (Scientific Reports, 2020).

What all share (assay): biochemical
Parameters in all cases: DiscoveRx KINOMEscan active site-directed competition binding; percent of control kinase bound to immobilised ligand

For experiment [1], the target named is T1, TYK2(JH2domain-pseudokinase) (Homo sapiens, UniProt P29597).
T1 construct: JH2domain-pseudokinase

The target of a further experiment is T2, TRKB (Homo sapiens, UniProt Q16620).
T2 construct: gene NTRK2
T2 sequence (Q16620 whole entry): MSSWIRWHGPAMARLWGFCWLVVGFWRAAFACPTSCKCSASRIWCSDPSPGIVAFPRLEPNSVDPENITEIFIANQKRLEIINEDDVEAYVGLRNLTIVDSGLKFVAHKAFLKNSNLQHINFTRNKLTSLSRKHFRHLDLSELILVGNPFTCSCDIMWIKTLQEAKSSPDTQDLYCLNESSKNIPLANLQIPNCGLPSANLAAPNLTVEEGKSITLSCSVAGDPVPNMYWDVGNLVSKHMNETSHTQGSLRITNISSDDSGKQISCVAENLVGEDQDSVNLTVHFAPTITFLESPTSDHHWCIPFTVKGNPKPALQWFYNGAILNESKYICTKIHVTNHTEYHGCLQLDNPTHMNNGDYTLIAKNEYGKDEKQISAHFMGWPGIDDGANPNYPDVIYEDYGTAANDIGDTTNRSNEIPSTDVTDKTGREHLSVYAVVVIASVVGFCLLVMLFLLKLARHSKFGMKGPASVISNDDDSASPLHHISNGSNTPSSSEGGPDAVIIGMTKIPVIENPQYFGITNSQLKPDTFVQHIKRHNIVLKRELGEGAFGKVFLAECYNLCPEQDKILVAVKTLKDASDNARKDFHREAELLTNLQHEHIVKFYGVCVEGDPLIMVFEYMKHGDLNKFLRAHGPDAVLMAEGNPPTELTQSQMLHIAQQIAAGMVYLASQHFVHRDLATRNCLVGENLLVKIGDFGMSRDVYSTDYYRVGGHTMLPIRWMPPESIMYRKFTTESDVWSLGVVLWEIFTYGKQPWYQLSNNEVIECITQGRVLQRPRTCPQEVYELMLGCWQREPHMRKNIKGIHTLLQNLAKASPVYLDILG

Experiment [2] deals with T3, RPS6KA5(Kin.Dom.2-C-terminal) (Homo sapiens, UniProt O75582).
T3 construct: Kin.Dom.2-C-terminal
T3 sequence (O75582 whole entry): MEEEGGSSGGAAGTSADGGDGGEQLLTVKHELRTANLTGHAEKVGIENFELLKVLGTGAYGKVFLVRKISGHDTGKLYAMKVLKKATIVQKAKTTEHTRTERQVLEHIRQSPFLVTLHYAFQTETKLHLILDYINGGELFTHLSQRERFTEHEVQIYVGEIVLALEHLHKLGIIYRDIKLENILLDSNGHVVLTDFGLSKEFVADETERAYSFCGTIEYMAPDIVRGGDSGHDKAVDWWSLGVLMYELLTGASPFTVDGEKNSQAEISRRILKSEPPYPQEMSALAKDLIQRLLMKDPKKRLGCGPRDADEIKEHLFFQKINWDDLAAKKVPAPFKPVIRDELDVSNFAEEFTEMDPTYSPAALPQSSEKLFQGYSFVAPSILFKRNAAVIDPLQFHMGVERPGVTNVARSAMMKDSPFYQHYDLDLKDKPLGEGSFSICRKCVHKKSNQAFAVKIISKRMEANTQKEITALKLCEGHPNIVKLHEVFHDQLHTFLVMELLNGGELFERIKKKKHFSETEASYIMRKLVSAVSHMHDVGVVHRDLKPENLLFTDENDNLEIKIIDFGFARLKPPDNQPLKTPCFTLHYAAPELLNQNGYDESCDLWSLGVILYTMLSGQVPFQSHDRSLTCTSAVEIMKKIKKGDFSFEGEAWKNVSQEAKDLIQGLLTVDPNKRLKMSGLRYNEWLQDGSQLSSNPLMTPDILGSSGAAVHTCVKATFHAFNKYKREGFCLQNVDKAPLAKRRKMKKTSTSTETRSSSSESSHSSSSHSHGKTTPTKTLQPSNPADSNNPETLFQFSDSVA

A further experiment addresses CSNK2A1 (Homo sapiens, UniProt P68400).
The next experiment has as its target MARK1 (Homo sapiens, UniProt Q9P0L2).
Experiment [3] has as its target T4, JAK1(JH1domain-catalytic) (Homo sapiens, UniProt P23458).
T4 construct: JH1domain-catalytic

The next experiment addresses T5, NEK9 (Homo sapiens, UniProt Q8TD19).
T5 sequence (Q8TD19 1-979): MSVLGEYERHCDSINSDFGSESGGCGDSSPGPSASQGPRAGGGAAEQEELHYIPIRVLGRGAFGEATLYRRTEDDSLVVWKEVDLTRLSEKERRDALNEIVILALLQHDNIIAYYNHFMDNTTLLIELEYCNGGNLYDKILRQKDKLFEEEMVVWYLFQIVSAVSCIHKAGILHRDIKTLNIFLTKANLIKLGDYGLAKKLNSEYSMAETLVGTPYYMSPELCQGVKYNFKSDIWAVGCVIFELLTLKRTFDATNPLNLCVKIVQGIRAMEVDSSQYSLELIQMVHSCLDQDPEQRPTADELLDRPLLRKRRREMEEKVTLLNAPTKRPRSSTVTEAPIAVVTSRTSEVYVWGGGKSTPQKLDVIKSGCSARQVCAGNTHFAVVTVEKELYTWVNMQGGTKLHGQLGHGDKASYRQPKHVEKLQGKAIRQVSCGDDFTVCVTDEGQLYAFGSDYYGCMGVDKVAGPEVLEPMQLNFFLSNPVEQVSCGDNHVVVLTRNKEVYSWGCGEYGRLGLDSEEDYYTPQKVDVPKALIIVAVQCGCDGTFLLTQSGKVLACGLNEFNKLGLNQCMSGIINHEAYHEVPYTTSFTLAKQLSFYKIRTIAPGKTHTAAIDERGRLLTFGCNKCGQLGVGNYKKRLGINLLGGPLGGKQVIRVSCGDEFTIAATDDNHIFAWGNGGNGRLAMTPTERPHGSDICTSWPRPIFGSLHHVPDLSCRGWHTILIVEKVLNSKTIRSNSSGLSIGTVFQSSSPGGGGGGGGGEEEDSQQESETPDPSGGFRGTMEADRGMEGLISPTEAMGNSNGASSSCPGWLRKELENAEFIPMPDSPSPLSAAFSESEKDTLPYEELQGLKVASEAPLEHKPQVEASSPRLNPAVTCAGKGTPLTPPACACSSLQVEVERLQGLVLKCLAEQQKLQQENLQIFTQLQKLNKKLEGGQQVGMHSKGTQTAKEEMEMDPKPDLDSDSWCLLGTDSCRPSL

The target in another experiment is T6, MLCK (Homo sapiens, UniProt Q32MK0).
T6 construct: gene MYLK3
T6 sequence (Q32MK0 1-819): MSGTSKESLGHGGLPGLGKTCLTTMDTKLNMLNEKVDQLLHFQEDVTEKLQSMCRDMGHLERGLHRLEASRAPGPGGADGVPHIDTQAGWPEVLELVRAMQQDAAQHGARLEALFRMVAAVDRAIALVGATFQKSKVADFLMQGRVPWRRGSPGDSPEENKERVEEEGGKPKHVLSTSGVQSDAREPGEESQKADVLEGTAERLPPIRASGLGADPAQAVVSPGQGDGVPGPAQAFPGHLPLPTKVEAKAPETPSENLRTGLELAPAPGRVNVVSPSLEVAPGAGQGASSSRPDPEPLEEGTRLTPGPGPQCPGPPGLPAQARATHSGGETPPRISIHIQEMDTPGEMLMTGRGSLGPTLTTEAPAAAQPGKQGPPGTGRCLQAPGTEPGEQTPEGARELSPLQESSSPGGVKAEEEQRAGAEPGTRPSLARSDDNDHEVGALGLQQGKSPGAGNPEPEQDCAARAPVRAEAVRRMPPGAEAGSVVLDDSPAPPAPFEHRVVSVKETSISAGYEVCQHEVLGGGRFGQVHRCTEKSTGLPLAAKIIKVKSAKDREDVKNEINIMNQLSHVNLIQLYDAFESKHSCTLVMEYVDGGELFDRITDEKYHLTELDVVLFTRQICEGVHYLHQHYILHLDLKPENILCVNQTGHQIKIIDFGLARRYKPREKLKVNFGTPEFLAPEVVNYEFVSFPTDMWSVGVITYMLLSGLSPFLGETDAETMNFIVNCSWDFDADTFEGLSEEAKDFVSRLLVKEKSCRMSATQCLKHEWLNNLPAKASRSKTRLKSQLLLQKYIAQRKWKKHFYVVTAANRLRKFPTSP

The mark [4] stands for this setting: read-out: Niraparib (MK-4827) / %Ctrl @ 10000nM.
[5] abbreviates: read-out: Talazoparib (BMN 673) / %Ctrl @ 10000nM.
[6] abbreviates: read-out: Rucaparib / %Ctrl @ 10000nM, binding competition, % of control.
The mark [7] stands for this setting: read-out: Olaparib / %Ctrl @ 10000nM.

Where two headings read alike, the source gives them in different places.

Chain of CSNK2A1 (P68400 whole entry): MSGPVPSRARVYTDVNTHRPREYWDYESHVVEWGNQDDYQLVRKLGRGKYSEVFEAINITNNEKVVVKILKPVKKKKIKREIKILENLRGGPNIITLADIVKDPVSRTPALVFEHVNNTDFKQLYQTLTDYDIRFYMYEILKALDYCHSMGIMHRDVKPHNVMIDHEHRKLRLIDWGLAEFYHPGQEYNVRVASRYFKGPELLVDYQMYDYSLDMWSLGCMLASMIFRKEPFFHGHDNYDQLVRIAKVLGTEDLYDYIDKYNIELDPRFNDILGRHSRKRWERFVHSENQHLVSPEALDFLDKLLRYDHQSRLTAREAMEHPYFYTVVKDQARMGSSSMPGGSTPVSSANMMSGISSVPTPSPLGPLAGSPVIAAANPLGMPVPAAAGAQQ
Chain of MARK1 (Q9P0L2 whole entry): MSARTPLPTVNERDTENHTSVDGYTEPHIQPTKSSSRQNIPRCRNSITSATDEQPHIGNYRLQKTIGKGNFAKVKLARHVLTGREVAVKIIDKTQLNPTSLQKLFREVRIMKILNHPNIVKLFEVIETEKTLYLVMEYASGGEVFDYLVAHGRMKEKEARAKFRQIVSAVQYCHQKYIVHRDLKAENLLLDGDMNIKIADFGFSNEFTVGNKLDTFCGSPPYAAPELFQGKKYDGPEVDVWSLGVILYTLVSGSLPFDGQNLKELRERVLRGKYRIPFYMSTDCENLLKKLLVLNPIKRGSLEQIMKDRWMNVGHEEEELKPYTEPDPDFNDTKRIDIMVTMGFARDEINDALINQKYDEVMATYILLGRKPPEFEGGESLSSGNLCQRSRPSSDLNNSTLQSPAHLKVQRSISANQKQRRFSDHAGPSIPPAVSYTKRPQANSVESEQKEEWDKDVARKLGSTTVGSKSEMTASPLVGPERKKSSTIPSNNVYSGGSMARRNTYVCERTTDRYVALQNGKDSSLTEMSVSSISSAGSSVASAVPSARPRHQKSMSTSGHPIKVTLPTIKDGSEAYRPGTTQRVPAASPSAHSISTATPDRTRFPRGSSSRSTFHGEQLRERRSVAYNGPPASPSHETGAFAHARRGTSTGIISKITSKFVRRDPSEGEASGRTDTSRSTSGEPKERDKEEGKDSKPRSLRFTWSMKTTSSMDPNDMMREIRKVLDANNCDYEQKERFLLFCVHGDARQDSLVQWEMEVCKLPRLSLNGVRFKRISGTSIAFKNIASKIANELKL
T1 sequence (P29597 whole entry): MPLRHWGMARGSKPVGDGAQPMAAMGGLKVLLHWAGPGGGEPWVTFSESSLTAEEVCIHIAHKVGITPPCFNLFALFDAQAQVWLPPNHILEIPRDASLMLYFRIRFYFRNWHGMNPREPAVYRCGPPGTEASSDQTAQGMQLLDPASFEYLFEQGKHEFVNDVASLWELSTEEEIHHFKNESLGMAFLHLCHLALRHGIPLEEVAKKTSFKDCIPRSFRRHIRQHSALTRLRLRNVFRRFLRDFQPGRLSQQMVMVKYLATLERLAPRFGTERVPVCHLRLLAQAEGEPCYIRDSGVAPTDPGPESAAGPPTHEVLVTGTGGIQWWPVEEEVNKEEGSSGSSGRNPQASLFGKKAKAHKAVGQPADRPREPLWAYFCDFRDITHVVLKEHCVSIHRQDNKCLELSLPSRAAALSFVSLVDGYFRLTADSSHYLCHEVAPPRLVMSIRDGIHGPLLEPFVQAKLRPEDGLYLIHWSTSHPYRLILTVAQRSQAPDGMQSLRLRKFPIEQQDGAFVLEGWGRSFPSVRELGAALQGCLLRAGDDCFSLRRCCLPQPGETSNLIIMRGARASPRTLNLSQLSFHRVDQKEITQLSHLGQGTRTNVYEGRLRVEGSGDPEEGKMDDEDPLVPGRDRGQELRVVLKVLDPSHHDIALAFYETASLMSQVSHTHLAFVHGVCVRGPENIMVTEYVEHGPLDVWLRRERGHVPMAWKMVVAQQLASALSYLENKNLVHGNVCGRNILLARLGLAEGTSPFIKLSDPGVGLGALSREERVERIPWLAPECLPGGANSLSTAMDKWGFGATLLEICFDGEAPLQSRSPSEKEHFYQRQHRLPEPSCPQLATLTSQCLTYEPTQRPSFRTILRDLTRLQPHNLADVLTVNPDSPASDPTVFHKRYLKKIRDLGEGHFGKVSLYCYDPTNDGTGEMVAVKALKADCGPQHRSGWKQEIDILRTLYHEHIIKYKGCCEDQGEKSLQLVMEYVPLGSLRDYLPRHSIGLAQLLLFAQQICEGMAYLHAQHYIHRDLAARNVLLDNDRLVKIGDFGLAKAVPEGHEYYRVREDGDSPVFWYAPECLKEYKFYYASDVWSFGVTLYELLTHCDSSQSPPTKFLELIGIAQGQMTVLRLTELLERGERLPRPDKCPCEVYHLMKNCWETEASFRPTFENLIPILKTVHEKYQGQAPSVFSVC

For `NC(=O)c1cccc2cn(-c3ccc([C@@H]4CCCNC4)cc3)nc12` [Niraparib], the percent of control binding at 10 µM in experiment [1] (setting [4]) came out at 37%; on TRKB (setting [4]), 96%; in experiment [2] (setting [4]), 96%; at CSNK2A1 (setting [4]) it was 6.8%; at MARK1 (setting [4]), 93%; in experiment [3] (setting [4]), 100%. In addition, the percent of control binding at 10 µM on NEK9 (setting [4]) stood at 100%; at MLCK (setting [4]), 92%.

Consider `Cn1ncnc1[C@H]1c2n[nH]c(=O)c3cc(F)cc(c23)N[C@@H]1c1ccc(F)cc1` [Talazoparib], for which the percent of control binding at 10 µM in experiment [1] (setting [5]) amounted to 84%; at TRKB (setting [5]), 100%; in experiment [2] (setting [5]) it was 80%; on CSNK2A1 (setting [5]) it was 98%; at MARK1 (setting [5]), 89%; in experiment [3] (setting [5]), 100%. Besides, the percent of control binding at 10 µM on NEK9 (setting [5]) stood at 99%; at MLCK (setting [5]), 98%.

As to `CNCc1ccc(-c2[nH]c3cc(F)cc4c3c2CCNC4=O)cc1` [Rucaparib], the percent of control binding at 10 µM in experiment [1] (setting [6]) stood at 7.6%; on TRKB (setting [6]) it was 66%; in experiment [2] (setting [6]), 77%; on CSNK2A1 (setting [6]), 2.2%; at MARK1 (setting [6]), 85%; in experiment [3] (setting [6]), 100%. Besides, the percent of control binding at 10 µM was found to be 100% at NEK9 (setting [6]) and 53% on MLCK (setting [6]).

For the compound `O=C(c1cc(Cc2n[nH]c(=O)c3ccccc23)ccc1F)N1CCN(C(=O)C2CC2)CC1` [Olaparib], the percent of control binding at 10 µM is 79% in experiment [1] (setting [7]); 76% on TRKB (setting [7]); 97% in experiment [2] (setting [7]); 88% at CSNK2A1 (setting [7]); 93% on MARK1 (setting [7]); 81% in experiment [3] (setting [7]). The percent of control binding at 10 µM is 100% on NEK9 (setting [7]) and 95% at MLCK (setting [7]).
